Measurements as given in patent US20260184693A1, “INHIBITORS OF SOLUTE CARRIER FAMILY 6A MEMBER 19 (SLC6A19) AND METHODS OF USE THEREOF” (Maze Therapeutics, Inc., priority 2022, published 2026).

Molecular target: T1, human SLC6A19 (Homo sapiens, UniProt Q695T7)
T1 construct: expressed in transfected cells
T1 sequence (Q695T7 1-634): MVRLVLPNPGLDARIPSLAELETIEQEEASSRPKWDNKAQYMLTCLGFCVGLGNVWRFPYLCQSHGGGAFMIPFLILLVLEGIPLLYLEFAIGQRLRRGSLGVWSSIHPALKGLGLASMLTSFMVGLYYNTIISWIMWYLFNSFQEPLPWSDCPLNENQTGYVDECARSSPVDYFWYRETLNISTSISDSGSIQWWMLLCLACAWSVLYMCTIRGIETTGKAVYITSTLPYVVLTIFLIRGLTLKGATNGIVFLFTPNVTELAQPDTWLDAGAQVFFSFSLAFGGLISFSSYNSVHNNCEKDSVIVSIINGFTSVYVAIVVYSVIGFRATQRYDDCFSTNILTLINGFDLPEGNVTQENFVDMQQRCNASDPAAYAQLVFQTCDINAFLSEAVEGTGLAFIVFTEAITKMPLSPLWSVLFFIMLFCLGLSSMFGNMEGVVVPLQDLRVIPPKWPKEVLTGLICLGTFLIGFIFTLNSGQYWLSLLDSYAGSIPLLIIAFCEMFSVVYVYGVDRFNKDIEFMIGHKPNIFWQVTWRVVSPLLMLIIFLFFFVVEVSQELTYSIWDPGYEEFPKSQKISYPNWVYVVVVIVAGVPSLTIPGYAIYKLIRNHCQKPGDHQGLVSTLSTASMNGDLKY
T1 sequence (Q9HBJ8 15-222 partner): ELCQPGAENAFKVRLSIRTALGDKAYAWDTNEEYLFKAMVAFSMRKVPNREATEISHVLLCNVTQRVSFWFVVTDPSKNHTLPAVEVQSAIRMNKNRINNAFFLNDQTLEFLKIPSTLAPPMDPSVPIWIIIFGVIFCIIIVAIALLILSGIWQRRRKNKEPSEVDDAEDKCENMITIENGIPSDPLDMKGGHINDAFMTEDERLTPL
Test: Example B2: 13C6,15N-isoleucine uptake, RapidFire mass spectrometry, in CHO cells with doxycycline-inducible expression of human SLC6A19 and TMEM27
Format: cell-based
Settings: read-out: SLC6A19_RapidFire Uptake Assay IC50
Experimental: Assay ready vials of CHO cells with doxycycline inducible expression of human SLC6A19 and TMEM27 were thawed, plated in T175 flasks containing DMEM/F12 media, 10% FBS, 100 Penicillin-Streptomycin, 1× UltraGlutamate, 1 mM Sodium Pyruvate, Sodium Bicarbonate (7.5 mL of 7.5% solution in 500 mL media final), […] Blasticidin, 150 µg/mL Hygromycin B Gold, and 500 µg/mL G418, and incubated (humidified, 37° C. with […]) for 48 hours. Media was then removed, flasks were washed with 20 mL of DPBS, and 5 mL of TryμLE™ Express was added to each flask to initiate cell dissociation. After 5 minutes, 10 mL of cell culture media was added to each flask and mixed. The cell suspension was collected and centrifuged for 5 minutes at 200×g. The supernatant was removed, and the pellet was resuspended in 10 mL of cell culture media. Resuspended cells were counted using a Vi-Cell. 30 μL/well (20,000 cells/well) of cell suspension was added to Poly-D-Lysine 384-well black/clear plates. Plates were incubated (humidified, 37° C. with 5% CO2) for 24 hours. To induce expression of human SLC6A19 and TMEM27, 10 μL of assay culture media containing 4 μg/mL doxycycline was added to each well. Assay plates were then incubated (humidified, 37° C. with 5% CO2) overnight. After incubation, the media was removed, and wells were washed 3 times with 40 μL of warmed DPBS. […] All compounds were plated in a duplicate 10-point dilution series that consisted of 2-fold dilutions. The plates were incubated (humidified, 37° C. with 5% CO2) with compound for 20 minutes. Afterwards, 20 μL/well of 2 mM 13C6,15N-1-isoleucine was added to each well and plates were incubated again (humidified, 37° C. with 5% CO2) for another 20 minutes. Assay buffer was then removed, and plates were washed. 70 μL/well of stop solution (75% acetonitrile, 25% HPLC grade water, 250 nM 1-leucine-1-13 C (RapidFire standard)) was added to each well. The plates were sealed and then placed in a −20° C. freezer for 20 minutes. The plates were thawed at room temperature for 20 minutes and then centrifuge for 20 minutes at 3000 rpm. Using an ABSciex API4000 mass spectrometer, processed samples were loaded onto the graphitic carbon SPE-column. The time for aspiration, load/wash, elution and re-equilibration time was 600, 1500, 3000 and 500 milliseconds, respectively. Peak areas were calculated using RapidFire Integrator software.

Structure (SMILES)	IC50
CC(=O)NCC(=O)N1CCC[C@@H](N(C)C(=O)NCc2cc3cc(Cl)ccc3[nH]2)C1 [Compound 53, (R)-N-(2-(3-(3-((5-chloro-1H-indol-2-yl)methyl)-1-methylureido)piperidin-1-yl)-2-oxoethyl)acetamide]	1.63 µM
CN(C(=O)NCc1cc2cc(Cl)ccc2[nH]1)[C@@H]1CCCN(C(=O)CNC(=O)C(F)(F)F)C1 [Compound 56, (R)-N-(2-(3-(3-((5-chloro-1H-indol-2-yl)methyl)-1-methylureido)piperidin-1-yl)-2-oxoethyl)-2,2,2-trifluoroacetamide]	2.46 µM
CN(C(=O)NCc1cc2cc(Cl)ccc2[nH]1)[C@@H]1CCCN(C(=O)C2(C(F)(F)F)CC2)C1 [Compound 57, (R)-3-((5-chloro-1H-indol-2-yl)methyl)-1-methyl-1-(1-(1-(trifluoromethyl)cyclopropane-1-carbonyl)piperidin-3-yl)urea]	8.64 µM
Cc1[nH]cnc1C(=O)N1CCC[C@@H](N(C)C(=O)NCc2cc3cc(Cl)ccc3[nH]2)C1 [Compound 58, (R)-3-((5-chloro-1H-indol-2-yl)methyl)-1-methyl-1-(1-(5-methyl-1H-imidazole-4-carbonyl)piperidin-3-yl)urea]	4.05 µM
CN(C(=O)NCc1cc2cc(Cl)ccc2[nH]1)[C@@H]1CCCN(C(=O)C2CCC(=O)N2)C1 (stereo partly drawn) [Compound 60, 3-((5-chloro-1H-indol-2-yl)methyl)-1-methyl-1-((3R)-1-(5-oxopyrrolidine-2-carbonyl)piperidin-3-yl)urea]	7.78 µM
CN(C(=O)NCc1cc2cc(Cl)ccc2[nH]1)[C@@H]1CCCN(C(=O)Cn2cccnc2=O)C1 [Compound 66, (R)-3-((5-chloro-1H-indol-2-yl)methyl)-1-methyl-1-(1-(2-(2-oxopyrimidin-1(2H)-yl)acetyl)piperidin-3-yl)urea]	4.24 µM
CN(C(=O)NCc1cc2cc(Cl)ccc2[nH]1)[C@@H]1CCCN(C(=O)c2onc3ccccc23)C1 [Compound 69, (R)-1-(1-(benzo[c]isoxazole-3-carbonyl)piperidin-3-yl)-3-((5-chloro-1H-indol-2-yl)methyl)-1-methylurea]	> 2.81 µM
CC(C(=O)N1CCC[C@@H](N(C)C(=O)NCc2cc3cc(Cl)ccc3[nH]2)C1)n1cncn1 (stereo partly drawn) [Compound 70, 1-((3R)-1-(2-(1H-1,2,4-triazol-1-yl)propanoyl)piperidin-3-yl)-3-((5-chloro-1H-indol-2-yl)methyl)-1-methylurea]	3.06 µM
CCS(=O)(=O)CC(=O)N1CCC[C@@H](N(C)C(=O)NCc2cc3cc(Cl)ccc3[nH]2)C1 [Compound 71, (R)-3-((5-chloro-1H-indol-2-yl)methyl)-1-(1-(2-(ethylsulfonyl)acetyl)piperidin-3-yl)-1-methylurea]	6.39 µM
CN(C(=O)NCc1cc2cc(Cl)ccc2[nH]1)[C@@H]1CCCN(C(=O)c2ccc3ocnc3c2)C1 [Compound 72, (R)-1-(1-(benzo[d]oxazole-5-carbonyl)piperidin-3-yl)-3-((5-chloro-1H-indol-2-yl)methyl)-1-methylurea]	1.37 µM
CN(C(=O)NCc1cc2cc(Cl)ccc2[nH]1)[C@@H]1CCCN(C(=O)c2cccn3cnnc23)C1 [Compound 74, (R)-1-(1-([1,2,4]triazolo[4,3-a]pyridine-8-carbonyl)piperidin-3-yl)-3-((5-chloro-1H-indol-2-yl)methyl)-1-methylurea]	2.54 µM
CN(C(=O)NCc1cc2cc(Cl)ccc2[nH]1)[C@@H]1CCCN(C(=O)C2CCC(=O)C2)C1 (stereo partly drawn) [Compound 75, 3-((5-chloro-1H-indol-2-yl)methyl)-1-methyl-1-((3R)-1-(3-oxocyclopentane-1-carbonyl)piperidin-3-yl)urea]	1.75 µM

Second part, the compound after the results:

IC50	Structure (SMILES)
0.366 µM	CN(C(=O)NCc1cc2cc(Cl)ccc2[nH]1)[C@@H]1CCCN(C(=O)c2ccccc2)C1 [Compound 52, (R)-1-(1-benzoylpiperidin-3-yl)-3-((5-chloro-1H-indol-2-yl)methyl)-1-methylurea]
0.401 µM	CN(C(=O)NCc1cc2cc(Cl)ccc2[nH]1)[C@@H]1CCCN(C(=O)c2ccn(C)n2)C1 [Compound 54, (R)-3-((5-chloro-1H-indol-2-yl)methyl)-1-methyl-1-(1-(1-methyl-1H-pyrazole-3-carbonyl)piperidin-3-yl)urea]
0.571 µM	CN(C(=O)NCc1cc2cc(Cl)ccc2[nH]1)[C@@H]1CCCN(C(=O)c2cnn(C)c2)C1 [Compound 55, (R)-3-((5-chloro-1H-indol-2-yl)methyl)-1-methyl-1-(1-(1-methyl-1H-pyrazole-4-carbonyl)piperidin-3-yl)urea]
0.529 µM	CN(C(=O)NCc1cc2cc(Cl)ccc2[nH]1)[C@@H]1CCCN(C(=O)Cc2ccn[nH]2)C1 [Compound 59, (R)-1-(1-(2-(1H-pyrazol-5-yl)acetyl)piperidin-3-yl)-3-((5-chloro-1H-indol-2-yl)methyl)-1-methylurea]
0.542 µM	CN(C(=O)NCc1cc2cc(Cl)ccc2[nH]1)[C@@H]1CCCN(C(=O)C2CCCO2)C1 (stereo partly drawn) [Compound 61, 3-((5-chloro-1H-indol-2-yl)methyl)-1-methyl-1-((3R)-1-(tetrahydrofuran-2-carbonyl)piperidin-3-yl)urea]
1.35 µM	CN(C(=O)NCc1cc2cc(Cl)ccc2[nH]1)[C@@H]1CCCN(C(=O)Cc2cnccn2)C1 [Compound 62, (R)-3-((5-chloro-1H-indol-2-yl)methyl)-1-methyl-1-(1-(2-(pyrazin-2-yl)acetyl)piperidin-3-yl)urea]
0.935 µM	CN(C(=O)NCc1cc2cc(Cl)ccc2[nH]1)[C@@H]1CCCN(C(=O)c2ccc(O)cc2F)C1 [Compound 63, (R)-3-((5-chloro-1H-indol-2-yl)methyl)-1-(1-(2-fluoro-4-hydroxybenzoyl)piperidin-3-yl)-1-methylurea]
0.651 µM	CN(C(=O)NCc1cc2cc(Cl)ccc2[nH]1)[C@@H]1CCCN(C(=O)[C@H]2C[C@H](O)C2)C1 [Compound 64, trans-(R)-3-((5-chloro-1H-indol-2-yl)methyl)-1-(1-(3-hydroxycyclobutane-1-carbonyl)piperidin-3-yl)-1-methylurea]
0.973 µM	Cc1noc(CC(=O)N2CCC[C@@H](N(C)C(=O)NCc3cc4cc(Cl)ccc4[nH]3)C2)n1 [Compound 65, (R)-3-((5-chloro-1H-indol-2-yl)methyl)-1-methyl-1-(1-(2-(3-methyl-1,2,4-oxadiazol-5-yl)acetyl)piperidin-3-yl)urea]
0.887 µM	CN(C(=O)NCc1cc2cc(Cl)ccc2[nH]1)[C@@H]1CCCN(C(=O)Cc2cccnc2)C1 [Compound 67, (R)-3-((5-chloro-1H-indol-2-yl)methyl)-1-methyl-1-(1-(2-(pyridin-3-yl)acetyl)piperidin-3-yl)urea]
0.417 µM	CN(C(=O)NCc1cc2cc(Cl)ccc2[nH]1)[C@@H]1CCCN(C(=O)Cc2ccccn2)C1 [Compound 68, (R)-3-((5-chloro-1H-indol-2-yl)methyl)-1-methyl-1-(1-(2-(pyridin-2-yl)acetyl)piperidin-3-yl)urea]
0.897 µM	CN(C(=O)NCc1cc2cc(Cl)ccc2[nH]1)[C@@H]1CCCN(C(=O)CCNC(N)=O)C1 [Compound 73, (R)-3-((5-chloro-1H-indol-2-yl)methyl)-1-methyl-1-(1-(3-ureidopropanoyl)piperidin-3-yl)urea]
